The values that follow come from patent US8394825B2, “Compound” (Sterix Limited, priority 2007, dated 2013).

One data set relates to DU145 cells. The data set is described as follows: Antiproliferative assay in DU145 cells, WST-1 cell proliferation assay, 96 hours (GI50). The following applies: Homo sapiens, DU-145, 96 hours post-treatment, triplicate. The data set is classed as cell-based. In a few lines: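 DU145 cells seeded at 5000 cells/well, treated with […] compound or vehicle for 96 h. Viability read by WST-1, expressed as percent of mean control, GI50 derived; triplicate experiments.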

`COc1cc2c(cc1O)CCN(Cc1cccc([N+](=O)[O-])c1)C2` [compound 66, 6-Hydroxy-7-methoxy-2-(3-nitrobenzyl)-1,2,3,4-tetrahydroisoquinoline] showed a melting point of 127 to 128 °C. In the data set on DU145 cells, the GI50 was more than 100 µM.
The molecule `COc1cc2c(cc1O)CCN(Cc1cccc(Cl)c1)C2` [compound 67, 2-(3-Chlorobenzyl)-6-hydroxy-7-methoxy-1,2,3,4-tetrahydroisoquinoline] displayed a melting point of 118 to 119.5 °C. This molecule also came in with a GI50 with DU145 cells of 50 to 100 µM.
For `COc1cc2c(cc1O)CCN(Cc1cccc(OC(F)(F)F)c1)C2` [compound 68, 6-Hydroxy-7-methoxy-2-(3-trifluoromethoxybenzyl)-1,2,3,4-tetrahydroisoquinoline] the same measures were 122 to 124 °C and 50 to 100 µM.
Regarding `COc1cc2c(cc1O)CCN(Cc1ccccc1O)C2` [compound 69, 2-(2-Hydroxybenzyl)-6-hydroxy-7-methoxy-1,2,3,4-tetrahydroisoquinoline], the melting point lay within 151.9 to 152.6 °C. Moreover, the GI50 in the data set on DU145 cells is more than 100 µM.
For `COc1cc2c(cc1O)CCN(Cc1cccc(O)c1)C2` [compound 70, 2-(3-Hydroxybenzyl)-7-methoxy-1,2,3,4-tetrahydroisoquinolin-6-ol] the same measures were 177 to 178 °C and more than 100 µM.
The molecule `COc1ccc(C(=O)N2CCc3cc(OCc4ccccc4)c(OC)cc3C2)cc1` [compound 108, 7-Methoxy-2-(4-methoxybenzoyl)-6-benzyloxy-1,2,3,4-tetrahydroisoquinoline] yielded a melting point of 126 to 127 °C. In the data set with DU145 cells, this molecule came in with a GI50 of 10 to 50 µM.
For `COc1cc(OC)cc(C(=O)N2CCc3cc(OCc4ccccc4)c(OC)cc3C2)c1` [compound 110, 6-Benzyloxy-2-(3,5-dimethoxybenzoyl)-7-methoxy-1,2,3,4-tetrahydroisoquinoline] the same measures were 130 to 131 °C and 10 to 50 µM.
The like results for `COc1cc2c(cc1O)CCN(C(=O)c1ccccc1OC)C2` [compound 115, 6-Hydroxy-7-methoxy-2-(2-methoxybenzoyl)-1,2,3,4-tetrahydroisoquinoline] were, in that order, 176 to 177 °C and 50 to 100 µM.
The like results for `COc1cccc(C(=O)N2CCc3cc(O)c(OC)cc3C2)c1` [compound 116, 6-Hydroxy-7-methoxy-2-(3-methoxybenzoyl)-1,2,3,4-tetrahydroisoquinoline] were, in that order, 141 to 142 °C and 10 to 50 µM.
In turn, `COc1ccc(C(=O)N2CCc3cc(O)c(OC)cc3C2)cc1` [compound 117, 6-Hydroxy-7-methoxy-2-(4-methoxybenzoyl)-1,2,3,4-tetrahydroisoquinoline] gave a melting point of 173 to 174 °C. Moreover, the GI50 in the data set with DU145 cells was more than 100 µM.
For `COc1cc2c(cc1O)CCN(C(=O)c1ccc(OC)c(OC)c1)C2` [compound 118, 2-(3,4-Dimethoxybenzoyl)-6-hydroxy-7-methoxy-1,2,3,4-tetrahydroisoquinoline] the same measures were 132 to 133 °C and more than 100 µM.
For `COc1cc2c(cc1O)CCN(C(=O)c1cc(OC)c(OC)c(OC)c1)C2` [compound 120, 6-Hydroxy-7-methoxy-2-(3,4,5-trimethoxybenzoyl)-1,2,3,4-tetrahydroisoquinoline] the same measures were 172 to 173 °C and less than 10 µM.
The like results for `COc1ccc(C(=O)N2CCc3cc(OCc4ccccc4)c(OC)cc3C2=O)cc1` [compound 128, 6-Benzyloxy-7-methoxy-2-(4-methoxybenzoyl)-3,4-dihydro-2H-isoquinolin-1-one] were, in that order, 151 to 152 °C and more than 100 µM.
Regarding `COc1cc(OC)cc(C(=O)N2CCc3cc(OCc4ccccc4)c(OC)cc3C2=O)c1` [compound 129, 6-(Benzyloxy)-2-(3,5-dimethoxybenzoyl)-7-methoxy-3,4-dihydro-2H-isoquinolin-1-one], the melting point was 180 to 181 °C. This molecule yielded a GI50 in the data set with DU145 cells of more than 100 µM.
`COc1cc2c(cc1OCc1ccccc1)CCN(C(=O)c1ccccc1OC)C2=O` [compound 130, 6-Benzyloxy-7-methoxy-2-(2-methoxybenzoyl)-3,4-dihydro-2H-isoquinoline-1-one] displayed a melting point of 163 to 164 °C. Besides, the GI50 in the data set with DU145 cells is more than 100 µM.
For `COc1ccc(C(=O)N2CCc3cc(OCc4ccccc4)c(OC)cc3C2=O)cc1OC` [compound 133, 6-(Benzyloxy)-7-methoxy-2-(3,4-dimethoxybenzoyl)-3,4-dihydro-2H-isoquinoline-1-one] the same measures were 200 to 201 °C and more than 100 µM.
For `COc1cc2c(cc1OCc1ccccc1)CCN(C(=O)c1cc(OC)c(OC)c(OC)c1)C2=O` [compound 134, 6-Benzyloxy-7-methoxy-2-(3,4,5-trimethoxybenzoyl)-3,4-dihydro-2H-isoquinolin-1-one] the same measures were 195 to 196 °C and more than 100 µM.
The like results for `COc1cc2c(cc1OCc1ccccc1)CCN(C(=O)c1cccc(C#N)c1)C2=O` [compound 135, 6-Benzyloxy-2-(3-cyanobenzoyl)-7-methoxy-3,4-dihydro-2H-isoquinoline-1-one] were, in that order, 195 to 196 °C and more than 100 µM.
With `COc1cc2c(cc1O)CCN(C(=O)c1ccccc1OC)C2=O` [compound 138, 6-Hydroxy-7-methoxy-2-(2-methoxybenzoyl)-3,4-dihydro-2H-isoquinoline-1-one], the melting point lay in the range of 199 to 200 °C. This molecule displayed a GI50 in the data set with DU145 cells of less than 10 µM.
Consider `COc1cccc(C(=O)N2CCc3cc(O)c(OC)cc3C2=O)c1` [compound 139, 6-Hydroxy-7-methoxy-2-(3-methoxybenzoyl)-3,4-dihydro-2H-isoquinoline-1-one], for which the melting point lay in the range of 198 to 199 °C. The same molecule returned a GI50 in the data set on DU145 cells of less than 10 µM.
For `COc1ccc(C(=O)N2CCc3cc(O)c(OC)cc3C2=O)cc1` [compound 140, 6-Hydroxy-7-methoxy-2-(4-methoxybenzoyl)-3,4-dihydro-2H-isoquinolin-1-one] the same measures were 224 to 225 °C and more than 100 µM.
In turn, `COc1cc(OC)cc(C(=O)N2CCc3cc(O)c(OC)cc3C2=O)c1` [compound 141, 2-(3,5-Dimethoxybenzoyl)-6-hydroxy-7-methoxy-3,4-dihydro-2H-isoquinolin-1-one] registered a melting point of 198 to 199 °C. In addition, in the data set on DU145 cells, the GI50 was less than 10 µM.
For `COc1cc2c(cc1O)CCN(C(=O)c1ccc(OC)c(OC)c1)C2=O` [compound 142, 2-(3,4-Dimethoxybenzoyl)-6-hydroxy-7-methoxy-3,4-dihydro-2H-isoquinoline-1-one] the same measures were 199 to 200 °C and less than 10 µM.
For `COc1cc2c(cc1O)CCN(C(=O)c1cc(OC)c(OC)c(OC)c1)C2=O` [compound 143, 6-Hydroxy-7-methoxy-2-(3,4,5-trimethoxybenzoyl)-3,4-dihydro-2H-isoquinolin-1-one] the same measures were 175 to 176 °C and less than 10 µM.
For `COc1cc2c(cc1O)CCN(C(=O)c1cccc(C#N)c1)C2=O` [compound 144, 2-(3-Cyanobenzoyl)-6-hydroxy-7-methoxy-3,4-dihydro-2H-isoquinoline-1-one] the same measures were 197 to 198 °C and 50 to 100 µM.
`COc1cc2c(cc1O)CCN(C(=O)c1ccc(C#N)cc1)C2=O` [compound 145, 2-(4-Cyanobenzoyl)-6-hydroxy-7-methoxy-3,4-dihydro-2H-isoquinoline-1-one] yielded a melting point of 198 to 199 °C. In addition, the concentration for 50% growth inhibition (GI50) in the data set with DU145 cells was more than 100 µM.
The like results for `COc1cccc(COc2cc3c(cc2OC)C(=O)N(Cc2cccc(OC)c2)CC3)c1` [compound 155, 7-Methoxy-2-(3-methoxybenzyl)-6-(3-methoxybenzyloxy)-3,4-dihydro-2H-isoquinolin-1-one] were, in that order, 85 to 86 °C and more than 100 µM.
For `COc1ccccc1COc1cc2c(cc1OC)C(=O)N(Cc1ccccc1OC)CC2` [compound 156, 7-Methoxy-2-(2-methoxybenzyl)-6-(2-methoxybenzyloxy)-3,4-dihydro-2H-isoquinolin-1-one] the same measures were 133 to 134 °C and more than 100 µM.
For `COc1cc(CN2CCc3cc(OCc4ccccc4)c(OC)cc3C2=O)cc(OC)c1` [compound 157, 6-(Benzyloxy)-2-(3,5-dimethoxybenzyl)-7-methoxy-3,4-dihydro-2H-isoquinolin-1-one] the same measures were 82 to 83 °C and more than 100 µM.
On to `COc1cc2c(cc1OCc1ccccc1)CCN(Cc1cc(OC)c(OC)c(OC)c1)C2=O` [compound 158, 6-(benzyloxy)-7-methoxy-2-(3,4,5-trimethoxybenzyl)-3,4-dihydro-2H-isoquinolin-1-one], for which the melting point lay within 136 to 137 °C. For the same molecule, the GI50 in the data set on DU145 cells was more than 100 µM.
The like results for `COc1ccc(CN2CCc3cc(O)c(OC)cc3C2=O)cc1` [compound 159, 6-Hydroxy-7-methoxy-2-(4-methoxybenzyl)-3,4-dihydroisoquinolin-1(2H)-one] were, in that order, 171 to 172 °C and more than 100 µM.
The like results for `COc1cccc(CN2CCc3cc(O)c(OC)cc3C2=O)c1` [compound 160, 6-Hydroxy-7-methoxy-2-(3-methoxy-benzyl)-3,4-dihydro-2H-isoquinolin-1-one] were, in that order, 181 to 182 °C and more than 100 µM.
`COc1cc2c(cc1O)CCN(Cc1ccccc1OC)C2=O` [compound 161, 6-Hydroxy-7-methoxy-2-(2-methoxybenzyl)-3,4-dihydro-2H-isoquinolin-1-one]: the melting point was in the range of 164 to 165 °C. The same molecule returned a GI50 in the data set with DU145 cells of more than 100 µM.
On to `COc1cc(CN2CCc3cc(O)c(OC)cc3C2=O)cc(OC)c1` [compound 162, 2-(3,5-dimethoxybenzyl)-6-hydroxy-7-methoxy-3,4-dihydro-2H-isoquinolin-1-one], for which the melting point was in the range of 166 to 167 °C. Besides, the GI50 with DU145 cells is more than 100 µM.
